“And” between values parts separate entries of the source, which are not always exact repeats. Equal entries are not always repeated.
Test system: HOP-62 complex spheroids with HUVEC/MSC, viability
Experiment: Anticancer human tumor HOP-62 cell line growth inhibition [RAS];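 further: spheroids exposed to agents for seven days before readout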;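 on viability, T/C: 100% = DMSO vehicle control viability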
Conditions: for viability, T/C: stronger effect = lower value
Method in brief: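 Multi-cell-type spheroids: tumor cells plus HUVEC endothelial cells and mesenchymal stem cells. RAS-pathway inhibitors were combined with targeted agents, each dosed in half-log steps down from clinical Cmax, or from 10 microM when Cmax was unknown.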

Work on `CC1(C)CCC(Nc2ncc(C(F)(F)F)c(-c3c[nH]c4c(P(C)(C)=O)c(C#N)ccc34)n2)CN1` (centres undefined) + C=CC(=O)N1CCN(c2nc(OCC3CCCN3C)nc3c(F)c(-c4nc(N)cc(C)c4C(F)(F)F)c(Cl)cc23)C(C)C1 yielded an IC50 (curve of first compound, second compound 0.00316 µM) of less than 0.949 nM, an IC50 (curve of first compound, second compound 0.01 µM) of 0.977 nM and an IC50 (curve of first compound, second compound 0.0316 µM) of less than 0.949 nM. The IC50 (curve of first compound, second compound 0.1 µM) was less than 0.949 nM, the IC50 (curve of first compound, second compound 0.316 µM) was less than 0.949 nM and the IC50 (curve of first compound, second compound 1 µM) was 0.959 nM. It also gave a viability, T/C (second compound 0.00316 µM, first compound 0.000949 µM) of 49.6%, a viability, T/C (second compound 0.00316 µM, first compound 0.003 µM) of 25% and a viability, T/C (second compound 0.00316 µM, first compound 0.00949 µM) of 19.8%. The viability, T/C (second compound 0.00316 µM, first compound 0.03 µM) was 15.8%, the viability, T/C (second compound 0.00316 µM, first compound 0.0949 µM) was 20.4% and the viability, T/C (second compound 0.00316 µM, first compound 0.3 µM) was 21.5%. The viability, T/C (second compound 0.01 µM, first compound 0.000949 µM) was 50.7%, the viability, T/C (second compound 0.01 µM, first compound 0.003 µM) was 24% and the viability, T/C (second compound 0.01 µM, first compound 0.00949 µM) was 20.3%. It also gave a viability, T/C (second compound 0.01 µM, first compound 0.03 µM) of 16.4%, a viability, T/C (second compound 0.01 µM, first compound 0.0949 µM) of 20% and a viability, T/C (second compound 0.01 µM, first compound 0.3 µM) of 19.8%. For the same compound, the viability, T/C (second compound 0.0316 µM, first compound 0.000949 µM) was 45.2%, the viability, T/C (second compound 0.0316 µM, first compound 0.003 µM) was 23.8% and the viability, T/C (second compound 0.0316 µM, first compound 0.00949 µM) was 19.6%. The viability, T/C (second compound 0.0316 µM, first compound 0.03 µM) was 15.4%, the viability, T/C (second compound 0.0316 µM, first compound 0.0949 µM) was 20.8% and the viability, T/C (second compound 0.0316 µM, first compound 0.3 µM) was 22.5%. For the same compound, the viability, T/C (second compound 0.1 µM, first compound 0.000949 µM) was 45.1%, the viability, T/C (second compound 0.1 µM, first compound 0.003 µM) was 22.6% and the viability, T/C (second compound 0.1 µM, first compound 0.00949 µM) was 21.2%. The viability, T/C (second compound 0.1 µM, first compound 0.03 µM) was 17.5%, the viability, T/C (second compound 0.1 µM, first compound 0.0949 µM) was 16% and the viability, T/C (second compound 0.1 µM, first compound 0.3 µM) was 20%. For the same compound, the viability, T/C (second compound 0.316 µM, first compound 0.000949 µM) was 48.8%, the viability, T/C (second compound 0.316 µM, first compound 0.003 µM) was 25.8% and the viability, T/C (second compound 0.316 µM, first compound 0.00949 µM) was 19.7%. It also gave a viability, T/C (second compound 0.316 µM, first compound 0.03 µM) of 16.8%, a viability, T/C (second compound 0.316 µM, first compound 0.0949 µM) of 21.2% and a viability, T/C (second compound 0.316 µM, first compound 0.3 µM) of 22.7%. For the same compound, the viability, T/C (second compound 1 µM, first compound 0.000949 µM) was 50.3%, the viability, T/C (second compound 1 µM, first compound 0.003 µM) was 20.7% and the viability, T/C (second compound 1 µM, first compound 0.00949 µM) was 18.4%. The viability, T/C (second compound 1 µM, first compound 0.03 µM) was 19.6%, the viability, T/C (second compound 1 µM, first compound 0.0949 µM) was 17.6% and the viability, T/C (second compound 1 µM, first compound 0.3 µM) was 19.1%.
In the case of `CCC(CC)c1cc(NC2CCC(N)C2)n2nccc2n1` (centres undefined), the viability, T/C (compound 0.0316 µM) is reported as 115% [middle of 4 runs], the viability, T/C (compound 0.1 µM) is reported as 112% [middle of 4 runs] and the viability, T/C (compound 0.316 µM) is reported as 112% [middle of 4 runs]. The viability, T/C (compound 1 µM) was 109% and 108% (2×) and 113%, the viability, T/C (compound 3.16 µM) was 9.12% [middle of 4 runs] and the viability, T/C (compound 10 µM) was 1.18% [middle of 4 runs]. The IC50 (curve of compound) was 1900 nM and 1970 nM and 2030 nM.
`C#Cc1c(F)ccc2cc(O)cc(-c3ncc4c(N5CC6CCC(C5)N6)nc(OCC56CCCN5CC(F)C6)nc4c3F)c12` (centres undefined) was tested, and the viability, T/C (compound 0.0316 µM) was 107% [middle of 8 runs], the viability, T/C (compound 0.1 µM) was 113% [middle of 8 runs] and the viability, T/C (compound 0.316 µM) was 109% [middle of 8 runs]. For the same compound, the viability, T/C (compound 1 µM) was 100% [middle of 8 runs], the viability, T/C (compound 3.16 µM) was 81.1% [middle of 8 runs] and the viability, T/C (compound 10 µM) was 48% [middle of 8 runs].
Compound `CC(C)n1nc(-c2ccc3oc(N)nc3c2)c2c(N)ncnc21` + CCn1c(-c2cc(N3CCN(C)CC3)cnc2C(C)OC)c2c3cc(ccc31)-c1csc(n1)CC(NC(=O)C1CC1C)C(=O)N1CCCC(N1)C(=O)OCC(C)(C)C2 has an IC50 (curve of first compound, second compound 0.000949 µM) of 32.8 nM, an IC50 (curve of first compound, second compound 0.003 µM) of 15.3 nM and an IC50 (curve of first compound, second compound 0.00949 µM) of 8.38 nM. For the same compound, the IC50 (curve of first compound, second compound 0.03 µM) was 0.644 nM, the IC50 (curve of first compound, second compound 0.0949 µM) was less than 0.316 nM and the IC50 (curve of first compound, second compound 0.3 µM) was less than 0.316 nM. It also gave a viability, T/C (second compound 0.000949 µM, first compound 0.000316 µM) of 122%, a viability, T/C (second compound 0.000949 µM, first compound 0.001 µM) of 111% and a viability, T/C (second compound 0.000949 µM, first compound 0.00316 µM) of 71.4%. It also gave a viability, T/C (second compound 0.000949 µM, first compound 0.01 µM) of 71.8%, a viability, T/C (second compound 0.000949 µM, first compound 0.0316 µM) of 59.5% and a viability, T/C (second compound 0.000949 µM, first compound 0.1 µM) of 28.3%. For the same compound, the viability, T/C (second compound 0.003 µM, first compound 0.000316 µM) was 96.2%, the viability, T/C (second compound 0.003 µM, first compound 0.001 µM) was 81.7% and the viability, T/C (second compound 0.003 µM, first compound 0.00316 µM) was 59%. The viability, T/C (second compound 0.003 µM, first compound 0.01 µM) was 65.4%, the viability, T/C (second compound 0.003 µM, first compound 0.0316 µM) was 44.9% and the viability, T/C (second compound 0.003 µM, first compound 0.1 µM) was 23.2%. The viability, T/C (second compound 0.00949 µM, first compound 0.000316 µM) was 64.9%, the viability, T/C (second compound 0.00949 µM, first compound 0.001 µM) was 56.1% and the viability, T/C (second compound 0.00949 µM, first compound 0.00316 µM) was 58.6%. The viability, T/C (second compound 0.00949 µM, first compound 0.01 µM) was 48.9%, the viability, T/C (second compound 0.00949 µM, first compound 0.0316 µM) was 30.7% and the viability, T/C (second compound 0.00949 µM, first compound 0.1 µM) was 24%. The viability, T/C (second compound 0.03 µM, first compound 0.000316 µM) was 52.5%, the viability, T/C (second compound 0.03 µM, first compound 0.001 µM) was 48.5% and the viability, T/C (second compound 0.03 µM, first compound 0.00316 µM) was 40%. It also gave a viability, T/C (second compound 0.03 µM, first compound 0.01 µM) of 32.6%, a viability, T/C (second compound 0.03 µM, first compound 0.0316 µM) of 21.7% and a viability, T/C (second compound 0.03 µM, first compound 0.1 µM) of 22.1%. The viability, T/C (second compound 0.0949 µM, first compound 0.000316 µM) was 38.1%, the viability, T/C (second compound 0.0949 µM, first compound 0.001 µM) was 36.4% and the viability, T/C (second compound 0.0949 µM, first compound 0.00316 µM) was 35.8%. For the same compound, the viability, T/C (second compound 0.0949 µM, first compound 0.01 µM) was 37.5%, the viability, T/C (second compound 0.0949 µM, first compound 0.0316 µM) was 20.6% and the viability, T/C (second compound 0.0949 µM, first compound 0.1 µM) was 24.6%. It also gave a viability, T/C (second compound 0.3 µM, first compound 0.000316 µM) of 37.8%, a viability, T/C (second compound 0.3 µM, first compound 0.001 µM) of 35% and a viability, T/C (second compound 0.3 µM, first compound 0.00316 µM) of 34.4%. It also gave a viability, T/C (second compound 0.3 µM, first compound 0.01 µM) of 27.7%, a viability, T/C (second compound 0.3 µM, first compound 0.0316 µM) of 26.5% and a viability, T/C (second compound 0.3 µM, first compound 0.1 µM) of 24.8%.
`CC(Nc1ccc2c(c1)OCCn1cc(N3C(=O)OCC3C(F)F)nc1-2)C(N)=O` (centres undefined) was tested, and the viability, T/C (compound 10 µM) was 36.1% (2×) and 49.9% and 54.1% and the IC50 (curve of compound) was 2310 nM and > 10000 nM and 1990 nM.

From PubChem BioAssay AID2060892 (Molecular Pharmacology Branch, DTP, NCI, 2025)
